Assays:
[1] = test system: Aβ1-42; assay: Measurement of Aβ1-42 in culture medium of 7W WT APP751 CHO cells by ELISA; type: cell-based, Chinese hamster; settings: for activity at 5 µM: Cricetulus griseus, Table 1, 5 μM test compound, CHO cells stably transfected with human APP751, culture medium, ELISA, control DMSO, 0 = no detectable amount, read-out: Aβ1-42 (% of control); for Aβ1-42 (% of control): CHO cells that overexpress APP751, zero = below the detection limit of the assay
[2] = test system: Aβ1-40; assay: Measurement of Aβ1-40 in culture medium of 7W WT APP751 CHO cells by ELISA; type: cell-based, Chinese hamster; settings: for activity at 5 µM: Cricetulus griseus, Table 1, 5 μM test compound, CHO cells stably transfected with human APP751, culture medium, ELISA, control DMSO, 0 = no detectable amount; for Aβ1-40 (% of control): CHO cells that overexpress APP751, zero = below the detection limit of the assay
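Note: 5 µM test compound but RI-coded compounds at 10 µM for 24 hours.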

Row | Compound | activity at 5 µM [1] | activity at 5 µM [2] | Aβ1-42 (% of control) [1] | Aβ1-40 (% of control) [2]
1 | CCCOc1ccc(C2C(C(=O)OCc3ccc(OC)cc3)=C(C)NC3=C2C(=O)CC(C)(C)C3)cc1OC (centres unmarked) [ST016979, (4-methoxyphenyl)methyl 4-(3-methoxy-4-propoxyphenyl)-2,7,7-trimethyl-5-oxo-1,4,6,7,8-pentahydroquinoline-3-carboxylate] | 90.1% | 53.7% | – | –
2 | N#CC1=C(N)N(Cc2ccccc2)C2=C(COC/C2=C/c2cccnc2)C1c1cccnc1 (centres unmarked) [ST014245, 2-amino-1-benzyl-4-(3-pyridyl)-8-(3-pyridylmethylene)-1,4,7-trihydro-5H-pyrano[4,3-b]pyridine-3-carbonitrile] | – | – | 53.59 % of control | 75.44 % of control
3 | COc1ccccc1C1C(C(=O)OC2CCCCC2)=C(C)NC2=C1C(=O)CCC2 (centres unmarked) [ST013339, cyclohexyl 4-(2-methoxyphenyl)-2-methyl-5-oxo-1,4,6,7,8-pentahydroquinoline-3-carboxylate] | 6.87% | 43.6% | – | –
4 | CC1=C(C(=O)OCc2ccccc2)C(c2ccccc2I)C2=C(CC(C)(C)CC2=O)N1 (centres unmarked) [ST216858, phenylmethyl 4-(2-iodophenyl)-2,7,7-trimethyl-5-oxo-1,4,6,7,8-pentahydroquinoline-3-carboxylate] | 61.5% | 30.1% | – | –
5 | CCCOCCOC(=O)C1=C(C)NC2=C(C(=O)CC(C)(C)C2)C1c1ccc(Br)cc1 (centres unmarked) [ST052437, 2-propoxyethyl 4-(4-bromophenyl)-2,7,7-trimethyl-5-oxo-1,4,6,7,8-pentahydroquinoline-3-carboxylate] | 16.5% | 5.31% | – | –
6 | CCc1ccc(C2C(C(=O)OCc3ccccc3)=C(C)NC3=C2C(=O)CC(c2ccccc2)C3)cc1 (centres unmarked) [ST013390, phenylmethyl 4-(4-ethylphenyl)-2-methyl-5-oxo-7-phenyl-1,4,6,7,8-pentahydroquinoline-3-carboxylate] | 98.3% | 23.4% | – | –
7 | COc1ccc(C2C(C(=O)OC3CCCC3)=C(C)NC3=C2C(=O)CC(c2cccs2)C3)c(OC)c1OC (centres unmarked) [ST051571, cyclopentyl 2-methyl-5-oxo-7-(2-thienyl)-4-(2,3,4-trimethoxyphenyl)-1,4,6,7,8-pentahydroquinoline-3-carboxylate] | 62.1% | 40.4% | – | –
8 | CCOC(=O)C1=C(C)NC2=C(C(=O)CCC2)C1c1ccc(OC)cc1OC (centres unmarked) [ST013213, ethyl 4-(2,4-dimethoxyphenyl)-2-methyl-5-oxo-1,4,6,7,8-pentahydroquinoline-3-carboxylate] | 69.3% | 78.2% | – | –
9 | CCc1ccc(C2C(C(=O)OCCOc3ccccc3)=C(C)NC3=C2C(=O)CC(C)(C)C3)cc1 (centres unmarked) [ST014886, 2-phenoxyethyl 4-(4-ethylphenyl)-2,7,7-trimethyl-5-oxo-1,4,6,7,8-pentahydroquinoline-3-carboxylate] | 65.1% | 21.6% | – | –
10 | CC1=C(C(=O)OCCOC(C)C)C(c2ccc([N+](=O)[O-])cc2)C2=C(CC(C)(C)CC2=O)N1 (centres unmarked) [ST052272, 2-(methylethoxy)ethyl 2,7,7-trimethyl-4-(4-nitrophenyl)-5-oxo-1,4,6,7,8-pentahydroquinoline-3-carboxylate] | 29.2% | 65.8% | – | –
11 | COc1ccc(C2CC(=O)C3=C(C2)NC(C)=C(C(=O)OCc2ccccc2)C3c2ccncc2)cc1 (centres unmarked) [ST017266, phenylmethyl 7-(4-methoxyphenyl)-2-methyl-5-oxo-4-(4-pyridyl)-1,4,6,7,8-pentahydroquinoline-3-carboxylate] | 64.6% | 65.5% | – | –
12 | CCOc1ccc(C2C(C(=O)OC)=C(C)NC3=C2C(=O)CC(c2ccc(OC)cc2)C3)cc1 (centres unmarked) [ST016974, methyl 4-(4-ethoxyphenyl)-7-(4-methoxyphenyl)-2-methyl-5-oxo-1,4,6,7,8-pentahydroquinoline-3-carboxylate] | 57.4% | 34.6% | – | –
13 | COCCOC(=O)C1=C(C)NC2=C(C(=O)CC(C)(C)C2)C1c1cc(OC)c(OC)c(OC)c1 (centres unmarked) [ST013356, 2-methoxyethyl 2,7,7-trimethyl-5-oxo-4-(3,4,5-trimethoxyphenyl)-1,4,6,7,8-pentahydroquinoline-3-carboxylate] | 82.5% | 62.7% | – | –
14 | CCc1ccc(C2C(C(=O)OC(C)CC)=C(C)NC3=C2C(=O)CC(c2ccc(OC)cc2)C3)cc1 (centres unmarked) [ST017092, methylpropyl 4-(4-ethylphenyl)-7-(4-methoxyphenyl)-2-methyl-5-oxo-1,4,6,7,8-pentahydroquinoline-3-carboxylate] | 30.9% | 41.3% | – | –
15 | CC1=C(C(=O)OC2CCCC2)C(c2ccc(Cl)cc2)C2=C(CC(C)(C)CC2=O)N1 (centres unmarked) [ST013081, cyclopentyl 4-(4-chlorophenyl)-2,7,7-trimethyl-5-oxo-1,4,6,7,8-pentahydroquinoline-3-carboxylate] | 0.188% | 0% | – | –
16 | Cn1cccc1/C=c1/sc2n(c1=O)C(N)=C(C#N)C(c1cccn1C)C=2C#N (centres unmarked) [ST003361, 5-amino-7-(1-methylpyrrol-2-yl)-2-[(1-methylpyrrol-2-yl)methylene]-3-oxo-4,7-dihydro-1,3-thiazolidino[3,2-a]pyridine-6,8-dicarbonitrile] | – | – | 90.24 % of control | 43.9 % of control

Row | Compound | activity at 5 µM [1] | activity at 5 µM [2] | Aβ1-42 (% of control) [1] | Aβ1-40 (% of control) [2]
17 | CC1=C(C(=O)Nc2ccc(Cl)cc2)C(c2ccccc2)C(C#N)=C(SCC(=O)Nc2ccccc2)N1 (centres unmarked) [RI_42] | – | – | 36.2 % of control | 27.2 % of control
18 | CCc1ccc(C2C(C(=O)OC3CCCCC3)=C(C)NC3=C2C(=O)CCC3)cc1 (centres unmarked) [ST013320, cyclohexyl 4-(4-ethylphenyl)-2-methyl-5-oxo-1,4,6,7,8-pentahydroquinoline-3-carboxylate] | 71.8% | 60.2% | – | –
19 | CC1=C(C(=O)Nc2ccc(Cl)cc2)C(c2ccccc2)C(C#N)=C(SCC(=O)Nc2ccc(C)cc2)N1 (centres unmarked) [RI_41] | – | – | 30.7 % of control | 36.4 % of control
20 | CC1=C(C(=O)OC2CCCC2)C(c2ccccc2Br)C2=C(CC(C)(C)CC2=O)N1 (centres unmarked) [ST013103, cyclopentyl 4-(2-bromophenyl)-2,7,7-trimethyl-5-oxo-1,4,6,7,8-pentahydroquinoline-3-carboxylate] | 68.2% | 0% | – | –
21 | CCOC(=O)C1=CN(c2cc(C)ccc2C)C=C(C(=O)OCC)C1c1ccccc1OCC [ST052488, ethyl 1-(2,5-dimethylphenyl)-5-(ethoxycarbonyl)-4-(2-ethoxyphenyl)-1,4-dihydropyridine-3-carboxylate] | – | – | 57.75 % of control | 60.3 % of control
22 | CCSCCOC(=O)C1=C(C)NC2=C(C(=O)CCC2)C1c1ccccc1Br (centres unmarked) [ST017199, 2-ethylthioethyl 4-(2-bromophenyl)-2-methyl-5-oxo-1,4,6,7,8-pentahydroquinoline-3-carboxylate] | 100% | 47.9% | – | –
23 | Cc1ccccc1N1C2=C(C(=O)CC(C)(C)C2)C(c2ccccc2)C2=C1c1ccccc1C2=O (centres unmarked) [ST024318, 3,3-dimethyl-5-(2-methylphenyl)-11-phenyl-2,3,4,5,11-pentahydroindeno[3,2-b]quinoline-1,10-dione] | 99.5% | 64.9% | – | –
24 | N#CC1=C2NC(=O)c3c(sc4c3CCCCC4)N2C2=C(C(=O)CCC2)C1c1ccc(F)cc1 (centres unmarked) [ST041668, 5-(4-fluorophenyl)-4,8-dioxo-1,2,3,5,7,9,10,11,12,13,15-undecahydrocyclohepta[1,2-b]quinolino[1′,2′-2,1]pyrimidino[5,6-d]thiophene-6-carbonitrile] | 27.9% | 88.7% | – | –
25 | COCCOC(=O)C1=C(C)NC2=C(C(=O)CC(c3ccc(Cl)cc3)C2)C1c1ccc(Br)cc1 (centres unmarked) [ST016960, 2-methoxyethyl 4-(4-bromophenyl)-7-(4-chlorophenyl)-2-methyl-5-oxo-1,4,6,7,8-pentahydroquinoline-3-carboxylate] | 76.4% | 51.5% | – | –
26 | COC(=O)C1=CN(Cc2ccc3c(c2)OCO3)C=C(C(=O)OC)C1c1ccc(OC)c(OC)c1 [ST038114, methyl 1-(2H-benzo[3,4-d]1,3-dioxolen-5-ylmethyl)-4-(3,4-dimethoxyphenyl)-5-(methoxycarbonyl)-1,4-dihydropyridine-3-carboxylate] | – | – | 95.92 % of control | 48 % of control
27 | CC1(C)CC(=O)C2=C(C1)N(c1ccc(Br)cc1F)C(N)=C(C#N)C2c1ccc(Cl)cc1Cl (centres unmarked) [ST052048, 2-amino-4-(2,4-dichlorophenyl)-1-(4-bromo-2-fluorophenyl)-7,7-dimethyl-5-oxo-1,4,6,7,8-pentahydroquinoline-3-carbonitrile] | 33% | 58.9% | – | –
28 | CC1=C(C(=O)OCCOc2ccccc2)C(c2ccc(OCc3ccccc3)cc2)C2=C(CCCC2=O)N1 (centres unmarked) [ST014899, 2-phenoxyethyl 2-methyl-5-oxo-4-[4-(phenylmethoxy)phenyl]-1,4,6,7,8-pentahydroquinoline-3-carboxylate] | 65.5% | 55.6% | – | –
29 | CCOCCOC(=O)C1=C(C)NC2=C(C(=O)CCC2)C1c1cc(OC)c(OC)c(OC)c1 (centres unmarked) [ST013345, 2-ethoxyethyl 2-methyl-5-oxo-4-(3,4,5-trimethoxyphenyl)-1,4,6,7,8-pentahydroquinoline-3-carboxylate] | 75.4% | 58.4% | – | –
30 | CC1=C(C(=O)Nc2ccccc2)C(c2cccs2)C(C#N)=C(SCC(=O)NC2CCCCC2)N1 (centres unmarked) [RI_25] | – | – | 36.5 % of control | 55.9 % of control
31 | CC1=C(C(=O)OC(C)C)C(c2cccc(O)c2)C2=C(CCCC2=O)N1 (centres unmarked) [ST013174, methylethyl 4-(3-hydroxyphenyl)-2-methyl-5-oxo-1,4,6,7,8-pentahydroquinoline-3-carboxylate] | 73.1% | 34.3% | – | –
